From US20130058930A1 (ANTARES PHARMA, INC., priority 2011, published 2013)
Where two headings read alike, the source gives them in different places.

Tests used:
[1] = Three-period crossover relative bioavailability study of methotrexate injectable solutions (Vibex device SC vs needle and syringe SC and IM); format: in vivo, human; conditions: for AUC(0-inf) / Tmax / AUC(0-t) / Cmax / half-life: human, plasma, sc, subcutaneous with Vibex device
Procedure: This was a randomized, open-label, 3-way crossover study involving 36 subjects. During the screening period, 1 of 4 MTX dose groups (10 mg, 15 mg, 20 mg, or 25 mg) were selected by the investigator for each subject based on the subject's current MTX dose at the time of enrollment and disease status (controlled RA vs. uncontrolled RA). […] One of six treatment sequences was possible as determined by the randomization schedule.
A total of approximately 200 ml blood was obtained from each subject over the course of the study.
Immediately following collection of each sample, each tube was gently inverted and placed in ice. Within 30 minutes of sample collection, the tubes were centrifuged at about 2000×G for 15 minutes at approximately 4° C. in order to separate the cells from the plasma. No aids for separation were used. The plasma was transferred with clean pipettes and placed in two polypropylene storage tubes in equal volumes. The storage tubes were labeled with the following information: protocol number, subject number, period number, relative time of sample, and analyte. The label was taped with clear tape to assure adherence of the label. The storage tubes were placed in a freezer at […] or below until they analyzed.
Briefly, in an ice water bath, 100 μL of the human K2EDTA plasma sample was placed in a 2-ml centrifuge tube. 10 μL of working standard solution and 10 μL of internal standard were added to the tubes. Afterwards, […] of 30% formic acid in water was added to the tubes and 0.2 ml of cold precipitation solution (acetonitrile) was added, vortexed and centrifuged. The supernatant was transferred to a 96-well plate for LC/MS/MS analysis. A volume of approximately 5 μL of the sample was injected into an LC/MS/MS system. The LC/MS/MS analysis was carried out with a Sciex API-4000 mass spectrometer coupled with a Shimadzu LC system. […] Calibration curves and quality control samples were included in each run. The ranges of the assay for both analyses were from 1 ng/ml to 1000 ng/ml, and the limit of quantification for both analyses was 1 ng/ml.
Concentration values that were reported as below the limit of quantification (BLQ) were treated as 0 for computing mean concentrations and in the concentration-time graphs. […] Concentrations in plasma were used as reported; but measurable concentrations observed after obtaining a BLQ result were excluded from analysis.
The Linear Up Log Down method (equivalent to the Linear Up/Log Down option in WinNonlin® Professional) was used in the computation of AUCs. The linear trapezoidal method was employed for any area where the concentration data was increasing (or constant) and the logarithmic trapezoidal method for any area where the concentration data was decreasing. Interpolation of concentration values was conducted using the linear interpolation rule for any time point surrounded by points of increasing (or constant) concentrations and the logarithmic interpolation rule for any time point surrounded by points of decreasing concentrations.
Pharmacokinetic parameters were calculated from the individual concentrations of MTX using noncompartmental methods. […] Secondary PK parameters calculated for each treatment were the following: time of maximum concentration (t . . . ), half-life (tin), Lambda z, and percent of area under the curve extrapolated.
Comparisons among treatments were evaluated by a mixed model analysis of the log-transformed, dose-normalized values of Cmax, AUC(0-t), and AUC(0-inf) with sequence, treatment, and treatment period as fixed effects and subject nested within sequence as a random effect. Using these models, the least-squares (LS) mean for the above PK parameters of each treatment were determined. The differences in LS means among treatments and the 90% confidence intervals (CIs) for the differences in the log-scale LS means among treatment were also obtained.

[2] = cited from earlier work; for average mean serum concentration: pediatric patients with juvenile rheumatoid arthritis

CN(Cc1cnc2nc(N)nc(N)c2n1)c1ccc(C(=O)N[C@@H](CCC(=O)O)C(=O)O)cc1 [methotrexate, N-[4-[[(2,4-diamino-6-pteridinyl)methyl]methylamino]benzoyl]-L-glutamic acid]
AUC(0-inf) ([1]; 10 mg, 10 mg single dose): ~1160 ng·h/mL
Tmax ([1]; 10 mg, 10 mg single dose): 1.33 h
AUC(0-t) ([1]; 10 mg, 10 mg single dose, read-out: AUC(0-24)): ~1150 ng·h/mL
AUC(0-t) ([1]; 10 mg, 10 mg single dose, read-out: AUC(0-t)): ~1140 ng·h/mL
Cmax ([1]; 10 mg, 10 mg single dose, subjects with rheumatoid arthritis): ~213 ng/mL
AUC(0-inf) ([1]; 15 mg, 15 mg single dose): ~1980 ng·h/mL
Cmax ([1]; 15 mg, 15 mg single dose): ~356 ng/mL
Tmax ([1]; 15 mg, 15 mg single dose): ~1.25 h
half-life ([1]; 15 mg, 15 mg single dose): ~3.68 h
AUC(0-t) ([1]; 15 mg, 15 mg single dose, read-out: AUC(0-24)): ~1950 ng·h/mL
AUC(0-t) ([1]; 15 mg, 15 mg single dose, read-out: AUC(0-t)): ~1940 ng·h/mL
AUC(0-inf) ([1]; 20 mg, 20 mg single dose): ~2220 ng·h/mL
Cmax ([1]; 20 mg, 20 mg single dose): ~417 ng/mL
Tmax ([1]; 20 mg, 20 mg single dose): ~1.17 h
half-life ([1]; 20 mg, 20 mg single dose): ~3.58 h
AUC(0-t) ([1]; 20 mg, 20 mg single dose, read-out: AUC(0-24)): ~2190 ng·h/mL
AUC(0-t) ([1]; 20 mg, 20 mg single dose, read-out: AUC(0-t)): ~2190 ng·h/mL
AUC(0-inf) ([1]; 25 mg, 25 mg single dose): ~2840 ng·h/mL
Cmax ([1]; 25 mg, 25 mg single dose): ~491 ng/mL
Tmax ([1]; 25 mg, 25 mg single dose): ~1.23 h
half-life ([1]; 25 mg, 25 mg single dose): ~3.78 h
AUC(0-t) ([1]; 25 mg, 25 mg single dose, read-out: AUC(0-24)): ~2800 ng·h/mL
AUC(0-t) ([1]; 25 mg, 25 mg single dose, read-out: AUC(0-t)): ~2800 ng·h/mL
dose proportionality of observed plasma levels ([1]; single-dose administration, 10 mg to 25 mg dose range): increase linearly in a dose-proportionate manner
initial average distribution volume ([2]; after intravenous administration): about 0.18 L/Kg
absorption from parenteral routes of injection ([2]; in vivo): completely absorbed
average mean serum concentration ([2]; at about 1 hour): about 0.59 μM
average mean serum concentration ([2]; at about 2 hours): about 0.44 μM
average mean serum concentration ([2]; at about 3 hours): about 0.29 μM
